In patent publication US8642788B2, “Activators of executioner procaspases 3, 6 and 7” (The Regents of the University of California, priority 2008, dated 2014):

How the values were obtained:
Type in all cases: biochemical
procaspase-3 = target: T1, procaspase-3 (Homo sapiens, UniProt P42574); assay: Executioner procaspase-3 activation assay (Ac-DEVD-AFC fluorogenic substrate); settings: incubation with compound for 5 h at 37° C.; 100 nM procaspase; read-out: Procaspase Activation 3
T1 construct: His6 (C); made in house; host or cells: E. coli BL21(DE3)RP, pET-23b
T1 sequence (P42574 1-277): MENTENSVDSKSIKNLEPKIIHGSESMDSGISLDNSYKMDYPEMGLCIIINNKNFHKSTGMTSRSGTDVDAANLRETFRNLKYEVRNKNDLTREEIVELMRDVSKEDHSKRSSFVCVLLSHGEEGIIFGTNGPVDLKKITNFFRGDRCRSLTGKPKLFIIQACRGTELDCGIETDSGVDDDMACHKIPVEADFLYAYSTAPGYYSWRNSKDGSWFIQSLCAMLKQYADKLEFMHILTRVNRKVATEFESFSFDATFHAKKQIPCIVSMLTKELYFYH
Experimental: The executioner procaspase-3, -6 and -7 activation assay protocol involves incubating the target protein at the physiologically-relevant concentration of 100 nM with activating compounds (ranging from 100 nM to 100 uM) in a total volume of 50 μL consisting of a reaction buffer of 50 mM HEPES, pH 7.4, 50 mM KCl, 1 mM DTT and 0.01% Triton-X100 (to reduce false positive hits due to compound aggregation). […] All components of the assay including protein, substrate and inhibitor are stored as frozen aliquots and thawed immediately prior to the assay.

procaspase-6 = target: T2, procaspase-6 (Homo sapiens, UniProt P55212); assay: Executioner procaspase-6 activation assay (Ac-VEID-AFC fluorogenic substrate); settings: incubation with compound for 5 h at 37° C.; 100 nM procaspase
T2 sequence (P55212 1-293): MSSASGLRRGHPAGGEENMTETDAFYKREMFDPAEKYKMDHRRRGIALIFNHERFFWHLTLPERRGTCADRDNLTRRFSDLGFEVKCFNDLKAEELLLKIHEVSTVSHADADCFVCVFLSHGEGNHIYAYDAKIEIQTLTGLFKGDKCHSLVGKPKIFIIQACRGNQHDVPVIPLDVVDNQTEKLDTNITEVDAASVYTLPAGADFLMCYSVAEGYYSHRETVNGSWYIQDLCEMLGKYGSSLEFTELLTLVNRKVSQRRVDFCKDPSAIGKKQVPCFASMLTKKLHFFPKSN
Experimental: (§1) The executioner procaspase-3, -6 and -7 activation assay protocol involves incubating the target protein at the physiologically-relevant concentration of 100 nM with activating compounds (ranging from 100 nM to 100 uM) in a total volume of 50 μL consisting of a reaction buffer of 50 mM HEPES, pH 7.4, 50 mM KCl, 1 mM DTT and 0.01% Triton-X100 (to reduce false positive hits due to compound aggregation). The procaspase/small molecule incubations are then agitated at 37° C. and assayed at various time points by addition of the fluorogenic peptide substrate 7-Amino-4-trifluoromethylcoumarin-DEVD (Ac-DEVD-AFC) (procaspases-3, -7) or Ac-VEID-AFC (procaspase-6) to a final concentration of 25 μM and analyzed by a kinetic 30 minute assay (excitation 365 nm and emission 495 nm). The final concentration of DMSO in each well is 3% and has no effect on enzyme stability or activity. […] All components of the assay including protein, substrate and inhibitor are stored as frozen aliquots and thawed immediately prior to the assay.
(§2) Tables 1 and 2. Procaspase activation as a result of incubation with compound for 5 h at 37° C. (+++ EC50˜0.5-10 μM; ++ EC50˜10-50 μM; + EC50˜50-200 μM; -no activation observed; ND not determined).

procaspase-7 = target: T3, procaspase-7 (Homo sapiens, UniProt P55210); assay: Executioner procaspase-7 activation assay (Ac-DEVD-AFC fluorogenic substrate); settings: incubation with compound for 5 h at 37° C.; 100 nM procaspase
T3 construct: His6 (C); made in house; host or cells: E. coli BL21(DE3)RP, pET-21b
T3 sequence (P55210 1-303): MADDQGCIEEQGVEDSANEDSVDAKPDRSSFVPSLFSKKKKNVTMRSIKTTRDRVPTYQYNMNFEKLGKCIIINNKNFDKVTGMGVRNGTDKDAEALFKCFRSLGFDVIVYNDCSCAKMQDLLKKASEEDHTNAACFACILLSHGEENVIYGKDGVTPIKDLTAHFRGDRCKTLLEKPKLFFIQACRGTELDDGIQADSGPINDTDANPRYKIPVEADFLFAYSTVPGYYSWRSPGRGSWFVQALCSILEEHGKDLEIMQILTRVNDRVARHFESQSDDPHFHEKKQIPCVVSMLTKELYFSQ
Experimental: as §1, §2

| SMILES | EC50 (procaspase-3) [µM] | EC50 (procaspase-6) [µM] | EC50 (procaspase-7) [µM] |
| --- | --- | --- | --- |
| O=C(Nc1cccc(-c2ccc(Oc3ccccc3)cc2)c1)c1cc2cccc(OC(F)(F)F)c2oc1=O [compound 61, 8-Trifluoromethoxy-2-oxo-2H-chromene-3-carboxylic acid (4′-phenoxy-biphenyl-3-yl)-amide] | > 100 | > 100 | > 100 |
| O=C(Nc1cccc(-c2ccc3c(c2)OCO3)c1)c1cc2cccc(O)c2oc1=O [compound 62, 8-Hydroxy-2-oxo-2H-chromene-3-carboxylic acid (3-Benzo[1,3]dioxol-5-yl-phenyl)-amide] | > 100 | > 100 | 10 to 50 |
| COc1cccc2cc(C(=O)Nc3cccc(-c4ccc5c(c4)OCO5)c3)c(=O)oc12 [compound 63, 8-Methoxy-2-oxo-2H-chromene-3-carboxylic acid (3-Benzo[1,3]dioxol-5-yl-phenyl)-amide] | > 100 | > 100 | > 100 |
| O=C(Nc1cccc(-c2ccc3c(c2)OCO3)c1)c1cc2cccc(OC(F)(F)F)c2oc1=O [compound 64, 8-Trifluoromethoxy-2-oxo-2H-chromene-3-carboxylic acid (3-Benzo[1,3]dioxol-5-yl-phenyl)-amide] | > 100 | > 100 | > 100 |
| CCOc1ccc(-c2cccc(NC(=O)c3cc4cccc(O)c4oc3=O)c2)cc1C [compound 65, 8-Hydroxy-2-oxo-2H-chromene-3-carboxylic acid (4′-ethoxy-3′-methyl-biphenyl-3-yl)-amide] | > 100 | > 100 | > 100 |
| CCOc1ccc(-c2cccc(NC(=O)c3cc4cccc(OC)c4oc3=O)c2)cc1C [compound 66, 8-Methoxy-2-oxo-2H-chromene-3-carboxylic acid (4′-ethoxy-3′-methyl-biphenyl-3-yl)-amide] | > 100 | > 100 | > 100 |
| CCOc1ccc(-c2cccc(NC(=O)c3cc4cccc(OC(F)(F)F)c4oc3=O)c2)cc1C [compound 67, 8-Trifluoromethoxy-2-oxo-2H-chromene-3-carboxylic acid (4′-ethoxy-3′-methyl-biphenyl-3-yl)-amide] | > 100 | > 100 | > 100 |
| CCOc1ccc(-c2cccc(NC(=O)c3cc4cccc(O)c4oc3=O)c2)cc1 [compound 68, 8-Hydroxy-2-oxo-2H-chromene-3-carboxylic acid (4′-Ethoxy-biphenyl-3-yl)-amide] | > 100 | > 100 | > 100 |
| CCOc1ccc(-c2cccc(NC(=O)c3cc4cccc(OC)c4oc3=O)c2)cc1 [compound 69, 8-Methoxy-2-oxo-2H-chromene-3-carboxylic acid (4′-ethoxy-biphenyl-3-yl)-amide] | > 100 | > 100 | > 100 |
| CCOc1ccc(-c2cccc(NC(=O)c3cc4cccc(OC(F)(F)F)c4oc3=O)c2)cc1 [compound 70, 8-Trifluoromethoxy-2-oxo-2H-chromene-3-carboxylic acid (4′-ethoxy-biphenyl-3-yl)-amide] | > 100 | > 100 | > 100 |
| O=C(Nc1cccc(-c2ccccc2OC(F)(F)F)c1)c1cc2cccc(O)c2oc1=O [compound 71, 8-Hydroxy-2-oxo-2H-chromene-3-carboxylic acid (2′-trifluoromethoxy-biphenyl-3-yl)-amide] | > 100 | > 100 | > 100 |
| COc1cccc2cc(C(=O)Nc3cccc(-c4ccccc4OC(F)(F)F)c3)c(=O)oc12 [compound 72, 8-Methoxy-2-oxo-2H-chromene-3-carboxylic acid (2′-trifluoromethoxy-biphenyl-3-yl)-amide] | > 100 | > 100 | > 100 |
| O=C(Nc1cccc(-c2ccccc2OC(F)(F)F)c1)c1cc2cccc(OC(F)(F)F)c2oc1=O [compound 73, 8-Trifluoromethoxy-2-oxo-2H-chromene-3-carboxylic acid (2′-trifluoromethoxy-biphenyl-3-yl)-amide] | > 100 | > 100 | > 100 |
| O=C(Nc1cccc(-c2ccc3c(c2)CCO3)c1)c1cc2cccc(O)c2oc1=O [compound 74, 8-Hydroxy-2-oxo-2H-chromene-3-carboxylic acid [3-(2,3-Dihydro-benzofuran-5-yl)-phenyl]-amide] | > 100 | > 100 | 10 to 50 |
| COc1cccc2cc(C(=O)Nc3cccc(-c4ccc5c(c4)CCO5)c3)c(=O)oc12 [compound 75, 8-Methoxy-2-oxo-2H-chromene-3-carboxylic acid [3-(2,3-dihydro-benzofuran-5-yl)-phenyl]-amide] | > 100 | > 100 | > 100 |
| O=C(Nc1cccc(-c2ccc3c(c2)CCO3)c1)c1cc2cccc(OC(F)(F)F)c2oc1=O [compound 76, 8-Trifluoromethoxy-2-oxo-2H-chromene-3-carboxylic acid [3-(2,3-dihydro-benzofuran-5-yl)-phenyl]-amide] | > 100 | > 100 | > 100 |
| COc1ccc2cc(-c3cccc(NC(=O)c4cc5cccc(O)c5oc4=O)c3)ccc2c1 [compound 77, 8-Hydroxy-2-oxo-2H-chromene-3-carboxylic acid [3-(6-methoxy-naphthalen-2-yl)-phenyl]-amide] | > 100 | > 100 | 0.5 to 10 |
| COc1ccc2cc(-c3cccc(NC(=O)c4cc5cccc(OC)c5oc4=O)c3)ccc2c1 [compound 78, 8-Methoxy-2-oxo-2H-chromene-3-carboxylic acid [3-(6-methoxy-naphthalen-2-yl)-phenyl]-amide] | > 100 | > 100 | > 100 |
| COc1ccc2cc(-c3cccc(NC(=O)c4cc5cccc(OC(F)(F)F)c5oc4=O)c3)ccc2c1 [compound 79, 8-Trifluoromethoxy-2-oxo-2H-chromene-3-carboxylic acid [3-(6-methoxy-naphthalen-2-yl)-phenyl]-amide] | > 100 | > 100 | > 100 |
| O=C(Nc1cccc(-c2ccc3ccccc3c2)c1)c1cc2cccc(O)c2oc1=O [compound 80, 8-Hydroxy-2-oxo-2H-chromene-3-carboxylic acid (3-Naphthalen-2-yl-phenyl)-amide] | > 100 | > 100 | > 100 |
| COc1cccc2cc(C(=O)Nc3cccc(-c4ccc5ccccc5c4)c3)c(=O)oc12 [compound 81, 8-Methoxy-2-oxo-2H-chromene-3-carboxylic acid (3-Naphthalen-2-yl-phenyl)-amide] | > 100 | > 100 | > 100 |
| O=C(Nc1cccc(-c2ccc3ccccc3c2)c1)c1cc2cccc(OC(F)(F)F)c2oc1=O [compound 82, 8-Trifluoromethoxy-2-oxo-2H-chromene-3-carboxylic acid (3-Naphthalen-2-yl-phenyl)-amide] | > 100 | > 100 | > 100 |
| O=C(Nc1cccc(-c2cnc3ccccc3c2)c1)c1cc2cccc(O)c2oc1=O [compound 83, 8-Hydroxy-2-oxo-2H-chromene-3-carboxylic acid [3-Quinolin-3-yl-phenyl]-amide] | > 100 | > 100 | > 100 |
